Several values for one entry are separate records, joined by “and”; a condition that tells them apart may be missing. Equal entries are not always repeated. Where two headings read alike, the source gives them in different places.
Legend:
human Nav1.4 = human Nav1.4 (Homo sapiens, UniProt P35499); assay: Automated patch-clamp, concentration-response and inactivation fits, Nav1.4 in CHO-K1; assay type: cell-based; conditions: for Nav1.4 yinf / Nav1.4 τ inact: n = 4
Description: (§1) Functional modulation of recombinant human voltage-gated sodium (Nav) channels exposed to marine PbTx-3 and brevenal was assessed by automated patch-clamp electrophysiology. Neuronal Nav1.2 (CNS) and Nav1.7 (PNS), in addition to muscle Nav1.4 (skeletal) and Nav1.5 (cardiac) sodium channels, were patch-clamped in mammalian cells. Whole-cell currents mediated by human Nav1.4 and Nav1.7 overexpressed in CHO-K1 cells, as well as human Nav1.2 and Nav1.5 overexpressed in HEK293 cells, were recorded at room temperature. Currents were elicited by 25 ms test pulses to −20 mV from a holding potential (Vh) of −120 mV, delivered for 5 min at 0.1 Hz, after each full-bath solution exchange to allow current amplitude and kinetics to reach a steady state.
(§2) Current traces were scaled to maximal Ipeak and are presented as insets in Figure 2 to underline the effects (or lack thereof) of PbTx-3 and brevenal on the current kinetics of the four Nav isoforms studied. Inactivation time constants (τinact) in control and the presence of PbTx-3 and brevenal were estimated by exponential fits (see Methods) to the current decay between 15% and 85% of the depolarizing pulse. Single exponential fits adequately described τinact for the neuronal and the skeletal muscle Nav isoforms, whereas a double exponential fit was required to approximate open channel inactivation of the cardiac Nav current. Consistent with the enhancement of Ilate observed for Nav1.2, Nav1.4, and Nav1.5 in the presence of PbTx-3, significant concentration-dependent increases in the Yinf asymptote were detected (Tables S1–S3). These were mirrored by brevenal exposure in Nav1.2- and Nav1.4-mediated currents. Nevertheless, the estimated τinacts appeared insensitive to PbTx-3 and brevenal modification, with the notable exception of Nav1.4, for which high concentrations of PbTx-3 and brevenal caused a measurable slowing of the open channel inactivation time constant (Table S2).
(§3) Recording solutions: The extracellular solution contained (in mM) 140 NaCl, 5 KCl, 2 CaCl2, 2 MgCl2, 10 glucose, and 10 HEPES (pH 7.4 with NaOH, 298 ± 3 mOsmol/k g). Control intracellular solution (in mM): 60 CsF, 70 CsCl, 10 EGTA, 10 glucose, and 10 HEPES (pH 7.2 with CsOH, 285 ± 3 mOsmol/kg). Intracellular exposure to brevenal (1 μM) was achieved by including it in the control intracellular solution during chip filling.
(§4) HEK293 cells heterologously expressing human Nav1.2 (Scottish Biomedical, a kind gift from the Petrous lab, Florey Institute of Neuroscience and Mental Health, Melbourne, VIC Australia) and Nav1.5 (ChanTest Corp., Cleveland, OH, USA) were cultured in DMEM containing 10% v/v FBS and selection antibiotics to enable stable expression as per the manufacturer’s recommendation. CHOK1 expressing Nav1.4 and Nav1.7 (ChanTest) was cultured in DMEM/F12 containing 10% v/v FBS and selection antibiotics supporting stable expression as recommended by the manufacturer. Cells were maintained in a humidified 5% CO2 incubator at 37 °C, grown in T25 flasks to 70–80% confluence, and passaged every 3–4 days using TrypLE Express (Invitrogen). After harvesting with TrypLE, cells were resuspended to 10^5 cells/mL in cold extracellular solution and allowed to recover for 30 min at 4 °C before recording.
(§5) Electrophysiology: Automated patch-clamp (APC) recordings were performed in a PatchLiner Octo (Nanion Technologies GmbH, Munich, Germany) equipped with two EPC-10 quadro patch-clamp amplifiers (HEKA Electronik, Lambrecht/Pfalz, Germany). PatchControl HT (Nanion) was used for cell capture, seal formation, and establishment of the whole-cell configuration, whilst voltage was controlled and currents were sampled with PatchMaster (HEKA Electronics). Recordings were performed under the whole-cell configuration using single-hole planar medium resistance NPC-16 chips (Rchip, resistance of ~2.5 MΩ) at room temperature (22–24 °C).
(§6) Cells between passages 6 and 12 were used. […]

human Nav1.7 = human Nav1.7 (Homo sapiens, UniProt Q15858); assay: Automated patch-clamp, concentration-response and inactivation fits, Nav1.7 in CHO-K1; assay type: cell-based
Description: as §1, §2, §3, §4, §5, §6

human Nav1.5 [1] = biological target: T1, human Nav1.5 (Homo sapiens, UniProt Q14524); assay: Automated patch-clamp I-V relationship (voltage dependence of activation, Gmax), Nav1.5; assay type: cell-based
Description: The voltage dependence of recombinant Nav channel-mediated currents exposed to PbTx-3 and brevenal was evaluated using current–voltage (I-V) relationships built for Ipeak and Ilate elicited by a standard stimulation protocol (25 ms, −100 to +60 mV, Vh −120 mV, 0.1 Hz).
The effects of extracellular exposure to PbTx-3 (PbTx-3o = 1 μM) and brevenal (Brevenalo = 10 μM) on the activation of Nav channels in neuronal and muscle cells were examined under normal intracellular ionic conditions. […] To investigate the possibility of overlapping binding of these compounds within Nav channels, Nav whole-cell currents were recorded using an intracellular solution supplemented with brevenal (Brevenali = 1 μM). After equilibration, extracellular PbTx-3o (1 μM) was applied and its modulatory effects over the current kinetics and voltage dependence of activation were compared.
Figure 4 and Figure 5 display representative current traces mediated by human recombinant Nav channels in control and upon exposure to PbTx-3 and brevenal. I-V plots from the normalized peak and late (when present) currents amplitudes (Ipeak/Ipeak^max and Ilate/Ipeak^max) were fitted to a Boltzmann function rendering the half-maximal activation potential (V0.5) and normalized macroscopic conductance (Gmax) parameters (see Section 4). The changes in V0.5 (ΔV0.5 = V0.5^Comp − V0.5^Ctr) and relative Gmax (Gmax^Rel = Gmax^Comp/Gmax^Ctr) observed in the presence of PbTx-3 and brevenal and control conditions were then calculated and compared for all assayed conditions.
as §3, §5
Peak I–V curves were fitted using:I(V) = (V − Vrev) × Gmax/(1 + exp ((V0.5 − V)/Vslope) where I is the macroscopic current, V is the command potential, Vrev is the reversal potential (mV), Gmax is the maximal conductance, V0.5 is the half-activation potential (mV), and Vslope is the slope factor (mV/e-fold).

human Nav1.5 [2] = biological target: T1, human Nav1.5; assay: cell-based; assay type: cell-based; conditions: for EC50: read-out: Nav1.5 Ipeak EC50
Description: as §1, §2, §3, §4, §5, §6

[3] = test system: nodose ganglion neuron Navs; conditions: cited from earlier work
[4] = test pulse −20 mV, Vh −120 mV, extracellular, n = 5

Chain of human Nav1.4 (P35499 whole entry): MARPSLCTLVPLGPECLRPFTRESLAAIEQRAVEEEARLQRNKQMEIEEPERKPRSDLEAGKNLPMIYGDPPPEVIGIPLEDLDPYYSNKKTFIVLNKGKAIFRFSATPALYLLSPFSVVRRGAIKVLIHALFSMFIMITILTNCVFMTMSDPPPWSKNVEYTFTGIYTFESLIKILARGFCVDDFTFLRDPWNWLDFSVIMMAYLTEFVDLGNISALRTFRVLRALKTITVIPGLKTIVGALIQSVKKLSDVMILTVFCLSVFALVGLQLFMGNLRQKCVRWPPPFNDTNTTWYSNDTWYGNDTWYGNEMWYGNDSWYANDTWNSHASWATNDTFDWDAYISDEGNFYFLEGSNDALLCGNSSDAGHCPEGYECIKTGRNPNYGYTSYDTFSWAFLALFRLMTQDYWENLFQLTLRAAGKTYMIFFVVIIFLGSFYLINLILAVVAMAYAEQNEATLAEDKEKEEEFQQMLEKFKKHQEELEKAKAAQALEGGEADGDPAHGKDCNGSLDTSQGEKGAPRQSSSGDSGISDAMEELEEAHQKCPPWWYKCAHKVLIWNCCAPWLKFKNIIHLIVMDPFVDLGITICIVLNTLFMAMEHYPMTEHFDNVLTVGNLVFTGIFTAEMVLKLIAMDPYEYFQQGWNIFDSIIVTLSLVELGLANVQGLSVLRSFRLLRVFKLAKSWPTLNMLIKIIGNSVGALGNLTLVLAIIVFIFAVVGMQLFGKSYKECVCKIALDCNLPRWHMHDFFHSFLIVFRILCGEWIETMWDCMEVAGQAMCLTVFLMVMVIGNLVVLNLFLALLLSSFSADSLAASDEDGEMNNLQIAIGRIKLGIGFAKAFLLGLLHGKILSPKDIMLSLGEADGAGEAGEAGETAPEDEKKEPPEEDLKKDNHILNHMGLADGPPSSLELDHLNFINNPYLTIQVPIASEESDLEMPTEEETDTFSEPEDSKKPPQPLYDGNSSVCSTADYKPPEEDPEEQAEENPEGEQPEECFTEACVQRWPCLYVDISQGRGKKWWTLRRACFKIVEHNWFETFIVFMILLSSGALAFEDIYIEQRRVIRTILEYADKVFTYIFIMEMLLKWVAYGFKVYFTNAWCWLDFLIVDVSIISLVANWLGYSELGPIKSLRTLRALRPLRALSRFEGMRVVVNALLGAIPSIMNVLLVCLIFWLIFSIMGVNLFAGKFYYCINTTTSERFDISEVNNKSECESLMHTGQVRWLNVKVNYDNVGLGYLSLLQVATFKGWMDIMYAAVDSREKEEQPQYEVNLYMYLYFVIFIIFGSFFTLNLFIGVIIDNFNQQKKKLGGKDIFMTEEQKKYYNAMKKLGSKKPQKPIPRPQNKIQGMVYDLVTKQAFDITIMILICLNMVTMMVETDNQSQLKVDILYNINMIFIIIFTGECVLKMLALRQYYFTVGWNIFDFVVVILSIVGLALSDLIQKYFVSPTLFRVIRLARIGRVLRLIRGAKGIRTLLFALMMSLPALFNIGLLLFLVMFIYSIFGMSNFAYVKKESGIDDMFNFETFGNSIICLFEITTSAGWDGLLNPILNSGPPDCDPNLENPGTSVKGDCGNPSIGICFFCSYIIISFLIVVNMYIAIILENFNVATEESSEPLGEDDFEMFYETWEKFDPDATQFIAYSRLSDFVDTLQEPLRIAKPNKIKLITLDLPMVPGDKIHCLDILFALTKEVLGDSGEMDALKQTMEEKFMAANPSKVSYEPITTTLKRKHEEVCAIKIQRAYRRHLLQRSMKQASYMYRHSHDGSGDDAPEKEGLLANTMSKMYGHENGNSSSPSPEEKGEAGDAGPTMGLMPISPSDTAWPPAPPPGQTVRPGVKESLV
T1 sequence (Q14524 whole entry): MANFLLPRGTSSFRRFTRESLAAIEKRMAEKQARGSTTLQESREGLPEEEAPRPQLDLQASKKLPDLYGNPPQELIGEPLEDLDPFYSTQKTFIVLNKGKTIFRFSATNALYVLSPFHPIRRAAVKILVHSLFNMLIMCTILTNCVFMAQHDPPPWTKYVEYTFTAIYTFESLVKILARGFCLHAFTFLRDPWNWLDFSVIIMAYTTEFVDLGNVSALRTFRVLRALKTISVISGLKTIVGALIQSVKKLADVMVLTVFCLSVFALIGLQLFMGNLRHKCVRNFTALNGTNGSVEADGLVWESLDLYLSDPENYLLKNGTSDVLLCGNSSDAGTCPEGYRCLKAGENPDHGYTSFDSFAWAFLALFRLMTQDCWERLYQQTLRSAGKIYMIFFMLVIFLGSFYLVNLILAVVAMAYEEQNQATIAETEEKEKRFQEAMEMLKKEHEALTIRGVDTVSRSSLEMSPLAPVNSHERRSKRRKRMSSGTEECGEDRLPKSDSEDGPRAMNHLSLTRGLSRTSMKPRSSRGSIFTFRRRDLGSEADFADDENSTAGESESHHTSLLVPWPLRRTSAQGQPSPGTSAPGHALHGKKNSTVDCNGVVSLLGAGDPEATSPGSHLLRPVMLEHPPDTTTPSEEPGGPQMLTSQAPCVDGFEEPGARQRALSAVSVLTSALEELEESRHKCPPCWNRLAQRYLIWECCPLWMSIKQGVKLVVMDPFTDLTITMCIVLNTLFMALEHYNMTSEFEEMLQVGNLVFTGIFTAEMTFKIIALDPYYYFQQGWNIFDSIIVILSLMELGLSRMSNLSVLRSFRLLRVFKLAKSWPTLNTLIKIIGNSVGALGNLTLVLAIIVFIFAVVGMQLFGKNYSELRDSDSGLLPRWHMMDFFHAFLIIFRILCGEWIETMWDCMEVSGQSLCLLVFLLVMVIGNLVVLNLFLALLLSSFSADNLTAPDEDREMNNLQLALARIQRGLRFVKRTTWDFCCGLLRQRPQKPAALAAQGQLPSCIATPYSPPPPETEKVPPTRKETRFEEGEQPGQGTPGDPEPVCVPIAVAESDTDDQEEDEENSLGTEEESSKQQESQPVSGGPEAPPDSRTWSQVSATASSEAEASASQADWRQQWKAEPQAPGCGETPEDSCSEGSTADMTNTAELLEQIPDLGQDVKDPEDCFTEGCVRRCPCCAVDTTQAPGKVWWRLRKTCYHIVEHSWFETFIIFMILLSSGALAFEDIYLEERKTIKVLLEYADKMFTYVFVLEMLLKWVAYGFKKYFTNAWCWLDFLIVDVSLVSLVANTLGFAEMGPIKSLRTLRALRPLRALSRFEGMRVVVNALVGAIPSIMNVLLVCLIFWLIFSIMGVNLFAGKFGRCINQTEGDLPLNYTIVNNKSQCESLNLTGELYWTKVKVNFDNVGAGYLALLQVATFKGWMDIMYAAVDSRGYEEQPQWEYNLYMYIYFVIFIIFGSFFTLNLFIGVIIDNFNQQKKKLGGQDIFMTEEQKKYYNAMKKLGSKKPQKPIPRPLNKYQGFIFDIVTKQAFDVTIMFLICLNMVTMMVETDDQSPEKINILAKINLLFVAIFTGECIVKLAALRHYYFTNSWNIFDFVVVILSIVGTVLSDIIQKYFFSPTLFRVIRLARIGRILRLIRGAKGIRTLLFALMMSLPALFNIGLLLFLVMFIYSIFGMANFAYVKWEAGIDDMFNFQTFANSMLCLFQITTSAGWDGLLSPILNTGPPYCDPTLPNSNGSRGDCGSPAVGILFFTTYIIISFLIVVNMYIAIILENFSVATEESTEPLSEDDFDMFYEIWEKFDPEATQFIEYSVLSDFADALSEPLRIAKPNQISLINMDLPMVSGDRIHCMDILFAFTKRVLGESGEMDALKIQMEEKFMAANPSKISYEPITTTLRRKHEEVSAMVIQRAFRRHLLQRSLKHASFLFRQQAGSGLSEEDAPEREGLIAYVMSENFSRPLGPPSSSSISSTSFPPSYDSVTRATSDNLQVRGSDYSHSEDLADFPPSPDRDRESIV

Compound: C=C/C=C\CC[C@H]1O[C@H]2CC[C@@]3(C)O[C@H]4[C@@H](O)C[C@@]5(C)O[C@@H](CC/C=C(C)/C(C)=C/C=O)[C@@H](C)C[C@H]5O[C@@H]4C[C@@H]3O[C@@H]2CC[C@@]1(C)O [Brevenal]
- Nav1.4 yinf (human Nav1.4; 10^-5 M): 0.19±0.03
- Nav1.4 τ inact (human Nav1.4; 10^-5 M): 1.16 ± 0.15 ms
- Nav1.4 yinf (human Nav1.4; 10^-6 M): 0.14±0.03
- Nav1.4 yinf (human Nav1.4; 10^-9 M): 0.09±0.01
- Nav1.4 τ inact (human Nav1.4; 10^-9 M): 0.71 ± 0.11 ms
- fold lower potency than PbTx-3 at enhancing Nav1.4-mediated Ilate (human Nav1.4; Brevenal EC50 vs PbTx-3 EC50): ~ 25 fold
- EC50 (human Nav1.4; enhancement of late current, −20 mV, Vh −120 mV, n = 5, read-out: Nav1.4 Ilate EC50): 100 nM
- EC50 (human Nav1.4; inhibition of peak current, −20 mV, Vh −120 mV, n = 5, read-out: Nav1.4 Ipeak EC50): 7.7 nM
- Nav1.4 Ilate FC^Max (maximal fold change) (human Nav1.4; [4]): 4.1 ± 0.8
- Nav1.4 Ipeak FC^Max (maximal fold change) (human Nav1.4; [4]): 0.1 ± 0.1
- Nav1.4 Ilate FC^Max (maximal fold change) (human Nav1.4; test pulse −20 mV, Vh −120 mV, extracellular, n = 5, listed as brevenal): 4.1
- Nav1.7 yinf (human Nav1.7; 10^-5 M, n = 4): 0.07±0.01
- Nav1.7 τ inact (human Nav1.7; 10^-5 M, n = 4): 0.93 ± 0.09 ms
- Nav1.7 yinf (human Nav1.7; 10^-6 M, n = 4): 0.07±0.01
- Nav1.7 τ inact (human Nav1.7; 10^-6 M, n = 4): 0.85 ± 0.06 ms
- Nav1.7 yinf (human Nav1.7; 10^-9 M, n = 4): 0.07±0.01
- Nav1.7 τ inact (human Nav1.7; 10^-9 M, n = 4): 0.76 ± 0.05 ms
- modulation of Nav1.7 currents (human Nav1.7; up to 30 μM): did not modulate
- ΔV0.5 of Nav1.5 activation (human Nav1.5 [1]; Brevenalo 10 μM, n = 7): 0.1 ± 1.4 mV
- relative Gmax of Nav1.5 (human Nav1.5 [1]; brevenal 10 μM extracellular, n = 7): 0.3 ± 0.1
- Nav1.5 A1Rel (human Nav1.5 [2]; 10^-5 M, n = 4): 0.77±0.05
- Nav1.5 τ 1inact (human Nav1.5 [2]; 10^-5 M, n = 4): 0.44 ± 0.01 ms
- Nav1.5 τ 2inact (human Nav1.5 [2]; 10^-5 M, n = 4): 1.79 ± 0.06 ms
- Nav1.5 A1Rel (human Nav1.5 [2]; 10^-6 M, n = 4): 0.77±0.07
- Nav1.5 τ 1inact (human Nav1.5 [2]; 10^-6 M, n = 4): 0.46 ± 0.01 ms
- Nav1.5 τ 2inact (human Nav1.5 [2]; 10^-6 M, n = 4): 2.05 ± 0.21 ms
- Nav1.5 A1Rel (human Nav1.5 [2]; 10^-9 M, n = 4): 0.73±0.07
- Nav1.5 τ 1inact (human Nav1.5 [2]; 10^-9 M, n = 4): 0.45 ± 0.01 ms
- Nav1.5 τ 2inact (human Nav1.5 [2]; 10^-9 M, n = 4): 1.77 ± 0.34 ms
- EC50 (human Nav1.5 [2]; inhibition of peak current, −20 mV, Vh −120 mV, n = 5): 17 nM
- Nav1.5 Ilate FC^Max (maximal fold change) (human Nav1.5 [2]; not significant vs control, −20 mV, Vh −120 mV, n = 5): 1.3 ± 0.2
- Nav1.5 Ipeak FC^Max (maximal fold change) (human Nav1.5 [2]; [4]): 0.4 ± 0.1

Compound: C=C(CO)C[C@@H]1C[C@H](O)[C@]2(C)OC3CC4OC5C[C@]6(C)O[C@]7(C)CCC8OC9C[C@]%10(C)OC%11C(C)=CC(=O)OC%11CC%10OC9C[C@@H](C)C8OC7CC6O[C@@]5(C)C/C=C\C4OC3CC2O1 (stereo partly shown) [PbTx-3, Brevetoxin PbTx-3]
- Nav1.4 Ipeak FC^Max (maximal fold change) (human Nav1.4): 0.03 ± 0.03
- EC50 (human Nav1.4; read-out: EC50, enhancement of Nav1.4-mediated Ilate): 4 nM
- EC50 (human Nav1.4; read-out: Nav1.4 Ilate EC50): 4.1 nM
- EC50 (human Nav1.4; read-out: Nav1.4 Ipeak EC50): 0.91 nM
- Nav1.7 Ilate FC^Max (maximal fold change) (human Nav1.7): 0.6 ± 0.1
- Nav1.7 Ipeak FC^Max (maximal fold change) (human Nav1.7): 0.4 ± 0.1
- Nav1.7 yinf (human Nav1.7): 0.04±0.01
- Nav1.7 τ inact (human Nav1.7): 0.60 ± 0.05 ms and 0.63 ± 0.04 ms and 0.66 ± 0.11 ms
- IC50 (human Nav1.7; read-out: IC50, inhibition of Nav1.7 Ilate): 34 nM
- EC50 (human Nav1.7; read-out: Nav1.7 Ipeak EC50): 0.16 nM
- Gmax^Rel of Nav1.5 (human Nav1.5 [1]): 1.2 ± 0.1
- depolarizing shift in V0.5 of Nav1.5 (human Nav1.5 [1]): 8.7 ± 1.2 mV
- depolarizing shift ΔV0.5 of Nav1.5 (human Nav1.5 [1]): 10.8 ± 2.0 mV
- relative Gmax of Nav1.5 (human Nav1.5 [1]): 0.4 ± 0.04
- Nav1.5 A1Rel (human Nav1.5 [2]): 0.82±0.05 and 0.72±0.01 and 0.71±0.06
- Nav1.5 A2Rel (human Nav1.5 [2]): 0.18±0.05 and 0.28±0.01 and 0.29±0.06
- Nav1.5 Ilate FC^Max (maximal fold change) (human Nav1.5 [2]): 1.8 ± 0.1
- Nav1.5 Ipeak FC^Max (maximal fold change) (human Nav1.5 [2]): 0.2 ± 0.1
- Nav1.5 τ 1inact (human Nav1.5 [2]): 0.46 ± 0.03 ms and 0.48 ± 0.06 ms and 0.45 ± 0.02 ms
- Nav1.5 τ 2inact (human Nav1.5 [2]): 2.42 ± 0.52 ms and 2.67 ± 0.78 ms and 1.48 ± 0.31 ms
- EC50 (human Nav1.5 [2]): 2.2 nM
- fold increase in the mean apparent single-channel open time [3]: ~ 2 fold
- lower conductance (sub-conductance) levels of PbTx-3-modified nodose Navs [3]: 10.7 pS and 21.2 pS
